Data as given in patent US6475479B1, “Terpenes for reducing the effect of pheromone on lepidoptera” (BASF Aktiengesellschaft, priority 1995, dated 2002).

Assays:
Lobesia males [1] = assay: Laboratory wind tunnel preference test with pheromone-lured electric traps; format: in vivo; conditions: cartridges with 30 μl E7,Z9-dodecadien-1-yl acetate 10^-4 g/g silicone oil plus citral 10^-1 g/g silicone oil, relative to standard (pheromone alone) set equal to one
From the text: Laboratory Wind Tunnel 4 electric traps up to […] in size were installed in a laboratory wind tunnel. As electric traps, commercially available electric insect capture appliances were rebuilt to give recording lure traps. The fluorescent tube normally responsible for the attractant action was replaced by a scent source. To avoid positional effects, the four traps were […]. The wheel rim was rotated by means of a motor having a speed of two revolutions per hour (once around its own axis and back), so that the traps continuously changed position. […] The number of moths trapped in each case was determined daily. By means of the number of moths trapped in the individual traps, the attractiveness of the particular lure was determined (preference test). The influence of various dilutions of E7,Z9-dodecadien-1-yl acetate was determined by setting the number of moths in the most common trap equal to one; the capturing ability of the other traps was calculated relative to this. […] The recapture rate of the standard was set equal to one and that of the traps with the terpene additive was calculated relative to this.

Lobesia males [2] = assay: Outdoor wind tunnels over vine rows, simulated mating disruption; format: in vivo
From the text: In spring 1994 two outdoor wind tunnels were built over a row of vines in each case in an experimental field of the SLFA Neustadt. These were aluminum scaffoldings 2 m high, 2 m wide and 10 m long.
The front and back were covered with mosquito nets made of cotton (mesh width 1.5×1.5 mm); 50μ thick polyethylene film lay over the entire length.
Air was blown into the interior through a ventilator at the front of the tunnel.
Two traps each were attached at a height of approximately 60 cm in the interior of the two wind tunnels on the ventilator side. The traps were lured with E7,Z9-dodecadien-1-yl acetate. Tunnel 1 remained untreated and served as a control. To simulate a mating disruption situation, 10 filter papers were uniformly distributed at various heights (20-120 cm) in tunnel 2 along the row of grapevines. 1 ml of citral solution in silicone oil with a dilution of 10^−1 g/g was in each case added dropwise to these in order to achieve a uniform concentration of the substance in the interior. A specific number of Lobesia males were in each case set free on the sides of the two wind tunnels opposite to the ventilator sides. After the end of the experiment, the Lobesia males captured in the traps were counted and the recapture rate was determined.

With `CC(C)=CCCC(C)=CC=O` [citral] the “inhibition of the recapture rate” value (Lobesia males [1]) was 90%, the Recapture rate (Lobesia males [2]; ratio of captured to released Lobesia males, traps lured with E7,Z9-dodecadien-1-yl acetate, 10 filter papers each with 1 ml citral solution 10^-1 g/g in silicone oil in the tunnel) was 0.01 and the “inhibition of the recapture rate” value (Lobesia males [2]; tunnel 2 (citral, 10 filter papers, 1 ml of 10^-1 g/g in silicone oil) versus untreated control tunnel 1) was 94.5%.
